Data taken from patent EP4570244A1, “ENHANCING AGENT OF CARDIOLIPIN MOLECULAR SPECIES THAT IS MITOCHONDRIAL COMPONENT” (Watanabe Oyster Laboratory Co., Ltd., priority 2022, dated 2024).

Legend:
CDS2 = experiment: qPCR expression level of cardiolipin biosynthesis-related gene in HK-2 cells under oxidative stress; assay type: cell-based, Human; conditions: oxidative stress + DHMBA, 24 hours, versus the increase in the oxidative stress group, corrected with β-actin, FIG. 5
Description: (§1) Human renal proximal tubule cells (HK-2) were subcultured in Dulbecco's Modified Eagle's Medium (DMEM, Nacalai Tesque) containing 10% fetal bovine serum and 1% penicillin-streptmycin at 37°C in a 5% CO2 incubator. The following experiments were conducted using the oxidative stress inducer to confirm the cardiolipin increase effect of DHMBA on the oxidative stress.
(§2) HK-2 cells were seeded in a 6-well plate at a density of 5.0 × 10^4 cells/well and cultured for 24 hours.
(§3) Next, under the same stimulus conditions as described above, 2 mL thereof was added to each well. After 24 hours, total RNA was recovered using NucleoSpin (registered trademark) RNA Kit (MACHEREY-NAGEL). The concentration of the purified RNA was quantified by Nanodrop (Invitrogen). From 1.0 µg of the total RNA, cDNA was synthesized according to a protocol for ReverTra Ace (registered trademark) qPCR RT Master Mix with gDNA Remover (TOYOBO).
(§4) The gene expression levels were measured according to a protocol for THUNDERBIRD (registered trademark) SYBR (registered trademark) qPCR Mix (TOYOBO). Measurements were performed using a CFX Connect™ real-time PCR analysis system (BioRad), and analyzed using a 2^-(ΔΔCT) method.
(§5) The gene expression level of the control group was set at 1 for comparison. The figures are expressed as mean ± SD (n = 4 for each group). […]

[1] = test system: Human renal proximal tubule cells (HK-2); experiment: Cardiolipin measurement by LC-MS/MS in HK-2 cells under oxidative stress stimulation; assay type: cell-based
Description: as §1
HK-2 cells were seeded in a 6-well plate at a density of 1.0 × 10^5 cells/well and cultured for 24 hours. The cells were then divided into four groups with different stimulus conditions, and 2 mL thereof was added to each well.
The above-described four groups with the different stimulus conditions are as follows.
Control group (culture medium); oxidative stress group (final concentration 100 µM Oxidative Stress); oxidative stress + DHMBA 250 group (final concentration 100 µM Oxidative Stress + final concentration 250 µM DHMBA); and oxidative stress + DHMBA 500 group (final concentration 100 µM Oxidative Stress + final concentration 500 µM DHMBA).
After 24 hours, the cells were washed twice with phosphate-buffered saline (hereinafter referred to as PBS), and then 1 mL of PBS was added to each well and the cells were recovered using a scraper. In this cell suspension, 100 µL was used for protein quantification by a bicinchoninic acid (BCA) method. The protein concentration was used for correction of the cardiolipin concentration. The remaining cell suspension was centrifuged at 1,200 rpm for 5 minutes, the supernatant was removed, and then the precipitated cells were stored at -80°C.
For the cardiolipin measurement, the total intracellular lipids were extracted in the same way as in the previous reports (Chen Z, et al. Metabolomics, 16: 115, 2020).
In short, the lipids in the sample were extracted using hexane/isopropanol 3:2 (v/v, with 0.05% butylated hydroxytoluene), and then dried and hardened in an evaporator. Next, the sample was dissolved in methanol (MeOH), and insoluble substances were removed by centrifugation at 15,000 rpm for 15 minutes at 4°C. The total lipids extracted were stored at -80°C. The cardiolipin measurement was performed using LC-MS/MS, following the same procedure as before.

HADHB = experiment: qPCR expression level of cardiolipin remodeling and degradation-related gene in HK-2 cells under oxidative stress; assay type: cell-based, Human; conditions: oxidative stress + DHMBA, 24 hours, corrected with β-actin, FIG. 6
Description: as §1, §2, §3, §4, §5

PNPLA8 = experiment: as above; assay type: cell-based, Human; conditions: oxidative stress + DHMBA, 24 hours, versus the increase in the oxidative stress group, corrected with β-actin, FIG. 6
Description: as §1, §2, §3, §4, §5

[2] = oxidative stress + DHMBA, acyl group distribution, FIG. 4

**Q.** How did the “gene expression level of CDS2” value (CDS2) turn out when `COc1c(O)cc(CO)cc1O` [DHMBA, 3,5-dihydroxy-4-methoxybenzyl alcohol] was run?
**A.** decreased to the same level as the control group

**Q.** What about the cardiolipin molecular species ([1]; 100 µM oxidative stress inducer + DHMBA (250 or 500 µM), 24 hours, almost all species, FIG. 2) of the same compound?
**A.** increased significantly

**Q.** What about the total cardiolipin content ([1]; co-treatment with 100 µM oxidative stress and 250 µM or 500 µM DHMBA, 24 hours, increase, FIG. 3) of the same compound?
**A.** about 1.5 times

**Q.** And the “saturated fatty acid chain FA16:0 of cardiolipin” value [1, 2]?
**A.** decreased

**Q.** And the “unsaturated fatty acid chain FA18:1 of cardiolipin” value [1, 2]?
**A.** increased

**Q.** What about the “unsaturated fatty acid chain FA18:2 of cardiolipin” value [1, 2] of the same compound?
**A.** increased

**Q.** And the “expression level of HADHB” value (HADHB)?
**A.** increased

**Q.** What about the “gene expression level of PNPLA8” value (PNPLA8) of the same compound?
**A.** decreased to the same level as the control group
